Results published in patent US20250295636A1, “METHOD FOR PREPARING 4-[5-[BIS(2-CHLOROETHYL)AMINO]-1-METHYL-1H-BENZO[D]IMIDAZOL-2-YL]BUTYRIC ACID ALKYL ESTERS AND FORMYLATED DERIVATIVES” (HERAEUS PRECIOUS METALS GMBH & CO. KG, priority 2022, published 2025).

Columns and labels:
Type in all cases: cell-based
U87MG = assay: MTS cell proliferation assay, U87MG (brain); settings: Homo sapiens, U-87 MG, 72 hours at 37° C., 490 nm
Method: (§1) Selected cell lines were incubated for 72 hours at 37° C. with different concentrations of 4-[5-[bis(2-chloroethyl)amino]-4-formyl-1-methyl-1H-benzo[d]imidazol-2-yl]butyric acid (concentrations ranging from 1.5 μmol to 5 mmol per liter). The cells were then incubated with MTS solution (Promega) for 1 hour, and the effects of 4-[5-[bis(2-chloroethyl)amino]-4-formyl-1-methyl-1H-benzo[d]imidazol-2-yl]butyric acid on cell proliferation were determined colorimetrically at 490 nm. Cell growth was expressed as a percentage of the corresponding control (0.5 wt. % dimethyl sulfoxide in water).

[1] = tested on: skin cancer, kidney cancer, lung cancer, brain tumors and pancreatic cancer; assay: cancer-cell-killing or cancer-cell-growth-inhibiting effect (summary of example 3); settings: summary statement; compound and its pharmaceutically acceptable salts; concentration at which 50% of the cancer cells are killed
Method: IC50 stands for “inhibition concentration,” at which 50% of the cancer cells are killed.
as §1

A375 = assay: MTS cell proliferation assay, A375 (skin); settings: Homo sapiens, A-375, 72 hours at 37° C., 490 nm
Method: as §1

BxPC-3 = assay: MTS cell proliferation assay, BxPC-3 (pancreas); settings: Homo sapiens, 72 hours at 37° C., 490 nm
Method: as §1

Caki-1 = assay: MTS cell proliferation assay, Caki-1 (kidneys); settings: Homo sapiens, 72 hours at 37° C., 490 nm
Method: as §1

Calu-6 = assay: MTS cell proliferation assay, Calu-6 (lung); settings: Homo sapiens, 72 hours at 37° C., 490 nm
Method: as §1

Cn1c(CCCC(=O)O)nc2c(C=O)c(N(CCCl)CCCl)ccc21 [4-[5-[bis(2-chloroethyl)amino]-4-formyl-1-methyl-1H-benzo[d]imidazol-2-yl]butyric acid]
IC50 (U87MG): 2900 µM
low IC50 concentration range [1]: one hundred
IC50 (A375): 1300 µM
IC50 (BxPC-3): 740 µM
IC50 (Caki-1): 1600 µM
IC50 (Calu-6): 1300 µM
